Where two headings read alike, the source gives them in different places.
Tests used:
[1] = biological target: CDC7 (Homo sapiens, UniProt O00311); assay: CDC7 inhibition, biochemical chemiluminescence assay (Kinase Glo, IC50 determination)
Outline: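 CDC7 enzyme preincubated with compound 10 min at ambient temperature, then ATP mix in Tris Base added; reaction 90 min at 24-27 °C. Remaining ATP quantified by Kinase Glo luminescence to give IC50.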

[2] = biological target: PIM (PIM-1, PIM-2, and/or PIM-3); assay: PIM-1, PIM-2 and PIM-3 inhibition, biochemical chemiluminescence assays (Kinase Glo, IC50 determination); conditions: Table 1 activity class; PIM refers to PIM-1, PIM-2, and/or PIM-3; read-out: PIM IC50 (Activity B)
[3] = biological target: CK2 (Homo sapiens, UniProt P68400); assay: CK2 inhibition, biochemical chemiluminescence holoenzyme assay (Kinase Glo, IC50 determination); conditions: Table 1 activity class; symbol given only if active; read-out: CK2 IC50 (Activity C)
Outline: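 Holoenzyme CK2 assay; compounds pre-incubated with substrate and enzyme, then reacted 150 min at 24-27° C. Remaining ATP measured as luminescence with Kinase Glo, and IC50 derived from the signal.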

[4] = Table 1 activity class, symbol given only if active, read-out: CDC7 IC50 (Activity A)
[5] = compounds in Table 1, read-out: CDC7 IC50 value

CDC7, sequence (O00311 whole entry): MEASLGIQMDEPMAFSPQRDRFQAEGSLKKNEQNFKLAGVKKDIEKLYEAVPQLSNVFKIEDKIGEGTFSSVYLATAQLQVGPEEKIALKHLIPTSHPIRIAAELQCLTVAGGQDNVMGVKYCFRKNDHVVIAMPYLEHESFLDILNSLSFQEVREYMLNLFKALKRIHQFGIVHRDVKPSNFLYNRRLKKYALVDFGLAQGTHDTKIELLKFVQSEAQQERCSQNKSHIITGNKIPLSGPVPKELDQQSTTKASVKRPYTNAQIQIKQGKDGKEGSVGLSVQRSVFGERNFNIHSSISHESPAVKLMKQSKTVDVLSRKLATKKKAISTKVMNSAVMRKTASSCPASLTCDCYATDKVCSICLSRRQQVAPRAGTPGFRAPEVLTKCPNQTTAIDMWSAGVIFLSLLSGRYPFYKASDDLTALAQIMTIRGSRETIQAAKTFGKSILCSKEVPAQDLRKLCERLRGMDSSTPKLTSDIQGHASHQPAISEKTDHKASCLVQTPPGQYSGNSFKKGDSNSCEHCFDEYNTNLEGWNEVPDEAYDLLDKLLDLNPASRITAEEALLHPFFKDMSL
CDC7, sequence (Q9UBU7 whole entry partner): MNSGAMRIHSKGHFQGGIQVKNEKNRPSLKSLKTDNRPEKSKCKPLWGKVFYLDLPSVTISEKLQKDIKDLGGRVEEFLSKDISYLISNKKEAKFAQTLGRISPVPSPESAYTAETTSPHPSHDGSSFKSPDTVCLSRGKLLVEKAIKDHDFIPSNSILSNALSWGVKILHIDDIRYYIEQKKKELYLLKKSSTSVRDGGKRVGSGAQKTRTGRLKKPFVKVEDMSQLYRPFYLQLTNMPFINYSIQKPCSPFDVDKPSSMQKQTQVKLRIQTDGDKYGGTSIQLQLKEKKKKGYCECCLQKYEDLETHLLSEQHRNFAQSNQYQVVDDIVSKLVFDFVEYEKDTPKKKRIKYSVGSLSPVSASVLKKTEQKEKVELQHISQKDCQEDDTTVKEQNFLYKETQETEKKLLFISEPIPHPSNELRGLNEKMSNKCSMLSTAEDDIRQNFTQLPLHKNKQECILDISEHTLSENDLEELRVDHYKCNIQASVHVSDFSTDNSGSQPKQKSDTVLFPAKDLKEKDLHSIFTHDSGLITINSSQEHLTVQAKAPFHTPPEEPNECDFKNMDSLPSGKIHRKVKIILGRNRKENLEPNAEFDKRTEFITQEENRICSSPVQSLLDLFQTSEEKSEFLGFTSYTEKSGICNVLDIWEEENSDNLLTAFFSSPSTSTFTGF
CK2, sequence (P68400 whole entry): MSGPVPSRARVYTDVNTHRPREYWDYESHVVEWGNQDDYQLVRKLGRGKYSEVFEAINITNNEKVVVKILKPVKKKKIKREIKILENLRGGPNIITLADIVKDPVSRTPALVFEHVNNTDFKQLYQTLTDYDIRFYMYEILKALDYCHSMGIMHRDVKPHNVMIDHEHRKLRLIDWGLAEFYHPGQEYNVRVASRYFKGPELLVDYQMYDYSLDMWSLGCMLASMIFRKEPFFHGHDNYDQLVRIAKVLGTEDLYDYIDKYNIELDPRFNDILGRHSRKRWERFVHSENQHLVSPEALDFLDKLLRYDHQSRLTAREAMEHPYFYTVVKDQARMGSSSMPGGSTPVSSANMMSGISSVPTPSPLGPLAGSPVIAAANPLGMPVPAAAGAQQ
CK2, sequence (P67870 whole entry partner): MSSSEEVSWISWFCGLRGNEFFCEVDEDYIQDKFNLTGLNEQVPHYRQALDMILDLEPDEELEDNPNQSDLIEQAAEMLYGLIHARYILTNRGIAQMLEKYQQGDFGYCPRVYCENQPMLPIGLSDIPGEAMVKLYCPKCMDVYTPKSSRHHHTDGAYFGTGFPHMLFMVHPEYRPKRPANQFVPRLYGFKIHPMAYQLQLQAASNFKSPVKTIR

Row | Compound | IC50 [1, 4] | IC50 [2] | IC50 [3] | IC50 [1, 5]
1 | O=C(Nc1ccc(-c2nc3c(oc4ccc(Br)cc43)c(=O)[nH]2)c(Cl)c1)c1ccno1 [Compound 324, N-[4-(8-bromo-4-oxo-3,4-dihydro[1]benzofuro[3,2-d]pyrimidin-2-yl)-3-chlorophenyl]isoxazole-5-carboxamide] | < 10 µM | < 10 µM | < 10 µM | 
2 | O=C(Nc1ccc(-c2nc3c(oc4ccc(Br)cc43)c(=O)[nH]2)c(Cl)c1)c1cncnc1 [Compound 328, N-[4-(8-bromo-4-oxo-3,4-dihydro[1]benzofuro[3,2-d]pyrimidin-2-yl)-3-chlorophenyl]pyrimidine-5-carboxamide] | < 10 µM | < 10 µM | < 10 µM | 
3 | O=c1[nH]c(CN2CC=CC2)nc2c1oc1ccc(Br)cc12 [Compound 331, 8-bromo-2-(3-pyrrolin-1-ylmethyl)[1]benzofuro[3,2-d]pyrimidin-4(3H)-one] | < 10 µM | < 10 µM | < 10 µM | < 0.1 µM
4 | O=c1[nH]c(CN2C[C@H](O)[C@@H](O)C2)nc2c1oc1ccc(Br)cc12 [Compound 333, 8-bromo-2-(((3 S,4S)-3,4-dihydroxypyrrolidin-1-yl)methyl)benzofuro[3,2-d]pyrimidin-4(3H)-one] | < 10 µM | < 10 µM | < 10 µM | < 0.1 µM
5 | COc1ccc(C(=O)Nc2ccc(-c3nc4c(oc5ccc(Br)cc54)c(=O)[nH]3)c(Cl)c2)cn1 [Compound 343, N-[4-(8-bromo-4-oxo-3,4-dihydro[1]benzofuro[3,2-d]pyrimidin-2-yl)-3-chlorophenyl]-6-(methyloxy)pyridine-3-carboxamide] | < 10 µM | < 10 µM | < 10 µM | 
6 | O=c1[nH]c(CN2CCC[C@@H]2CO)nc2c1oc1ccc(Br)cc12 [Compound 344, 8-bromo-2-{[(2R)-2-(hydroxymethyl)pyrrolidin-1-yl]methyl}[1]benzofuro[3,2-d]pyrimidin-4(3H)-one] | < 10 µM | < 10 µM | < 10 µM | < 0.1 µM
7 | CC1(O)CCN(Cc2nc3c(oc4ccc(Br)cc43)c(=O)[nH]2)C1 (stereo not shown) [Compound 346, 8-bromo-2-[(3-hydroxy-3-methylpyrrolidin-1-yl)methyl][1]benzofuro[3,2-d]pyrimidin-4(3H)-one] | < 10 µM | < 10 µM | < 10 µM | < 0.1 µM
8 | O=C(O)c1ccc(C(=O)Nc2ccc(-c3nc4c(oc5ccc(Br)cc54)c(=O)[nH]3)c(Cl)c2)nc1 [Compound 347, 6-({[4-(8-bromo-4-oxo-3,4-dihydro[1]benzofuro[3,2-d]pyrimidin-2-yl)-3-chlorophenyl]amino}carbonyl)pyridine-3-carboxylic acid] | < 10 µM | < 10 µM | < 10 µM | 
9 | O=c1[nH]c(CN2C[C@@H](O)[C@@H](O)C2)nc2c1oc1ccc(Br)cc12 [Compound 348, 8-bromo-2-{[cis-3,4-dihydroxypyrrolidin-1-yl]methyl}[1]benzofuro[3,2-d]pyrimidin-4(3H)-one] | < 10 µM | < 10 µM | < 10 µM | < 0.1 µM
10 | NCc1ccc(-c2nc3c(oc4ccc(Br)cc43)c(=O)[nH]2)cc1 [Compound 349, 2-[4-(Aminomethyl)phenyl]-8-bromo[1]benzofuro[3,2-d]pyrimidin-4(3H)-one] | < 10 µM | < 10 µM | < 10 µM | 
11 | CN(C)Cc1cccc(-c2nc3c(oc4ccc(Br)cc43)c(=O)[nH]2)c1 [Compound 353, 8-Bromo-2-{3-[(dimethylamino)methyl]phenyl}[1]benzofuro[3,2-d]pyrimidin-4(3H)-one] | < 10 µM | < 10 µM | < 10 µM | 
12 | Cc1cc(C(=O)Nc2ccc(-c3nc4c(oc5ccc(Br)cc54)c(=O)[nH]3)c(Cl)c2)no1 [Compound 362, N-[4-(8-bromo-4-oxo-3,4-dihydro[1]benzofuro[3,2-d]pyrimidin-2-yl)-3-chlorophenyl]-5-methylisoxazole-3-carboxamide] | < 10 µM | < 10 µM | < 10 µM | 
13 | O=C(Nc1ccc(-c2nc3c(oc4ccc(Br)cc43)c(=O)[nH]2)c(Cl)c1)c1ccon1 [Compound 363, N-[4-(8-bromo-4-oxo-3,4-dihydro[1]benzofuro[3,2-d]pyrimidin-2-yl)-3-chlorophenyl]isoxazole-3-carboxamide] | < 10 µM | < 10 µM | < 10 µM | 
14 | CC(=O)N[C@@H]1CCN(Cc2nc3c(oc4ccc(Br)cc43)c(=O)[nH]2)C1 [Compound 364, N-{(3R)-1-[(8-bromo-4-oxo-3,4-dihydro[1]benzofuro[3,2-d]pyrimidin-2-yl)methyl]pyrrolidin-3-yl}acetamide] | < 10 µM | < 10 µM | < 10 µM | < 0.1 µM
15 | O=c1[nH]c(CN2CCC[C@H]2CO)nc2c1oc1ccc(Br)cc12 [Compound 366, 8-bromo-2-{[(2S)-2-(hydroxymethyl)pyrrolidin-1-yl]methyl}[1]benzofuro[3,2-d]pyrimidin-4(3H)-one] | < 10 µM | < 10 µM | < 10 µM | < 0.1 µM
16 | O=C(O)C1(O)CCN(Cc2nc3c(oc4ccc(Br)cc43)c(=O)[nH]2)C1 (stereo not shown) [Compound 368, 1-[(8-bromo-4-oxo-3,4-dihydro[1]benzofuro[3,2-d]pyrimidin-2-yl)methyl]-3-hydroxypyrrolidine-3-carboxylic acid] | < 10 µM | < 10 µM | < 10 µM | < 0.1 µM
17 | CO[C@H]1CCN(Cc2nc3c(oc4ccc(Br)cc43)c(=O)[nH]2)C1 [Compound 369, 8-bromo-2-{[(3S)-3-(methyloxy)pyrrolidin-1-yl]methyl}[1]benzofuro[3,2-d]pyrimidin-4(3H)-one] | < 10 µM | < 10 µM | < 10 µM | < 0.1 µM
18 | O=C(O)C1CN(Cc2nc3c(oc4ccc(Br)cc43)c(=O)[nH]2)C1 [Compound 370, 1-[(8-bromo-4-oxo-3,4-dihydro[1]benzofuro[3,2-d]pyrimidin-2-yl)methyl]azetidine-3-carboxylic acid] | < 10 µM | < 10 µM | < 10 µM | 
19 | O=C(Nc1ccc(-c2nc3c(oc4ccc(Br)cc43)c(=O)[nH]2)c(Cl)c1)c1ncco1 [Compound 373, N-[4-(8-bromo-4-oxo-3,4-dihydro[1]benzofuro[3,2-d]pyrimidin-2-yl)-3-chlorophenyl]-1,3-oxazole-2-carboxamide] | < 10 µM | < 10 µM | < 10 µM | 

The next lines start with the values.

Row | IC50 [1, 4] | IC50 [2] | IC50 [3] | IC50 [1, 5] | Compound
20 | < 10 µM | < 10 µM | < 10 µM |  | Cc1cnc(C(=O)Nc2ccc(-c3nc4c(oc5ccc(Br)cc54)c(=O)[nH]3)c(Cl)c2)cn1 [Compound 312, N-[4-(8-bromo-4-oxo-3,4-dihydro[1]benzofuro[3,2-d]pyrimidin-2-yl)-3-chlorophenyl]-5-methylpyrazine-2-carboxamide]
21 | < 10 µM | < 10 µM | < 10 µM |  | O=C(Nc1ccc(-c2nc3c(oc4ccc(Br)cc43)c(=O)[nH]2)c(Cl)c1)C1CCOC1 (stereo not shown) [Compound 313, N-[4-(8-bromo-4-oxo-3,4-dihydro[1]benzofuro[3,2-d]pyrimidin-2-yl)-3-chlorophenyl]tetrahydrofuran-3-carboxamide]
22 | < 10 µM | < 10 µM | < 10 µM |  | O=c1[nH]c(C[C@H]2CCCNC2)nc2c1oc1ccc(Br)cc12 [Compound 315, 8-bromo-2-[(3R)-piperidin-3-ylmethyl][1]benzofuro[3,2-d]pyrimidin-4(3H)-one]
23 | < 10 µM | < 10 µM | < 10 µM | < 0.1 µM | O=c1[nH]c(CN2CCCC(F)C2)nc2c1oc1ccc(Br)cc12 (stereo not shown) [Compound 317, 8-bromo-2-[(3-fluoropiperidin-1-yl)methyl][1]benzofuro[3,2-d]pyrimidin-4(3H)-one]
24 | < 10 µM | < 10 µM | < 10 µM |  | COCC(=O)Nc1ccc(-c2nc3c(oc4ccc(Br)cc43)c(=O)[nH]2)c(Cl)c1 [Compound 319, N-[4-(8-bromo-4-oxo-3,4-dihydro[1]benzofuro[3,2-d]pyrimidin-2-yl)-3-chlorophenyl]-2-(methyloxy)acetamide]
25 | < 10 µM | < 10 µM | < 10 µM |  | COC(=O)Nc1ccc(-c2nc3c(oc4ccc(Br)cc43)c(=O)[nH]2)c(Cl)c1 [Compound 320, methyl [4-(8-bromo-4-oxo-3,4-dihydro[1]benzofuro[3,2-d]pyrimidin-2-yl)-3-chlorophenyl]carbamate]
26 | < 10 µM | < 10 µM | < 10 µM |  | O=C(Nc1ccc(-c2nc3c(oc4ccc(Br)cc43)c(=O)[nH]2)c(Cl)c1)c1ccco1 [Compound 321, N-[4-(8-bromo-4-oxo-3,4-dihydro[1]benzofuro[3,2-d]pyrimidin-2-yl)-3-chlorophenyl]furan-2-carboxamide]
27 | < 10 µM | < 10 µM | < 10 µM |  | O=C(Cc1cccnc1)Nc1ccc(-c2nc3c(oc4ccc(Br)cc43)c(=O)[nH]2)c(Cl)c1 [Compound 322, N-[4-(8-bromo-4-oxo-3,4-dihydro[1]benzofuro[3,2-d]pyrimidin-2-yl)-3-chlorophenyl]-2-pyridin-3-ylacetamide]
28 | < 10 µM | < 10 µM | < 10 µM |  | O=C(Nc1ccc(-c2nc3c(oc4ccc(Br)cc43)c(=O)[nH]2)c(Cl)c1)c1cnccn1 [Compound 323, N-[4-(8-bromo-4-oxo-3,4-dihydro[1]benzofuro[3,2-d]pyrimidin-2-yl)-3-chlorophenyl]pyrazine-2-carboxamide]

From patent US20090247559A1 (Exelixis, Inc., priority 2007, published 2009)
